Assay results reported in US8685695B2, “Method for producing a mixture of bacteriophages and the use thereof in the therapy of antibiotic-resistant staphylococci” (priority 2008, dated 2014).
Like-named read-outs stand apart in the source and are kept apart here.

Legend:
[1] = tested on: S. aureus M.06.02.0071 (USA300, MRSA, ST8); format: in vivo, mouse; details: for Percentage of surviving animals: antibiotics 2 × day
Procedure: A non-sensitive antibiotic (ciprofloxacin) and a sensitive antibiotic (vancomycin) were also used to allow a comparison to be made.
Four groups, each of 20 mice weighing approximately 25 g, were first subjected to immunosuppression to ensure that they would be adequately infected by S. aureus. The immunosuppression began with an application of cyclophosphamide 4 days before the bacterial infection. A further application of cyclophosphamide was carried out 1 day before, together with a once-only administration of cortisone. The immunosuppression with cyclophosphamide was repeated at intervals of 3 days.
The strain of S. aureus which was selected for the infection was resistant to this antibiotic.
The strain of S. aureus which was selected for the infection (internal designation M.06.02.0071) was an isolate which was supplied by the Robert-Koch-Institut of Wernigerode. This S. aureus is a member of the group of USA300 (MRSA, ST8) strains which are considered particularly virulent due to the presence of the virulence factor PVL.
On day 0, the mice had 1.5×10^7 CFU of the S. aureus applied to them intratrachially under anaesthetic.
The medicament, which was applied intratrachially under anaesthetic, was a one-off dose of 5.5×10^10 PFU of a 1:1 mixture of the bacteriophages DSM 18722 and DSM 18723 either one hour before the infection or one hour after the infection. One group, beginning 1 day before the infection, was also treated subcutaneously with vancomycin twice a day.
The main parameter was the determination of lethality as a function of the time elapsed since the start of the test. The length of the test was 14 days.

[2] = tested on: S. aureus M.06.02.0071; experiment: Sensitivity of the strain to bacteriophages and antibiotics; format: cell-based, Staphylococcus aureus
[3] = tested on: S. aureus DSM 18421; experiment: Nanocalorimetric measurement of metabolism; format: cell-based, Staphylococcus aureus; details: antibiotics 10 μg/ml; bacteriophages 4×10^9 PFU/ml
Procedure: (§1) Another sensitive method of examining the activity of micro-organisms is available in the form of nanocalorimetry. In this technique, metabolic action is measured by way of the heat it produces. The production of heat is measured from the voltage (in [p\/]) generated at thermocouples.
(§2) A detailed description of the measuring system used and the procedure can be found in: J. Lerchner et al., Thermochimica Acta 477, 2008, 48-53.
(§3) The concentration of the bacteriophages was 4×10^9 PFU/ml.

[4] = tested on: S. aureus M.06.02.0071; experiment: Nanocalorimetric measurement of metabolism; format: cell-based, Staphylococcus aureus; details: antibiotics 10 μg/ml; bacteriophages 4×10^9 PFU/ml
Procedure: as §1, §2, §3

[5] = tested on: S. aureus from tissue (M.06.02.0071, mouse pneumonia model); experiment: Nanocalorimetric measurement of metabolism, bacteria isolated from lung tissue; format: cell-based, Staphylococcus aureus; details: antibiotics 10 μg/ml, bacteriophages 4×10^9 PFU/ml
Procedure: as §1, §2, §3

[6] = tested on: S. aureus DSM 18421; experiment: Sensitivity of the strain to bacteriophages and antibiotics; format: cell-based, Staphylococcus aureus
[7] = tested on: Staphylococcus aureus DSM 18421; experiment: Lysis of Staphylococcus aureus DSM 18421 in saliva (viable cell count); format: cell-based
Procedure: • Morning saliva (before breakfast and before cleaning of teeth) was collected from different individual persons. • The saliva samples were centrifuged for 5 min at room temperature at 12,000 rpm. • The supernatant liquid was removed and sterile filtered (0.8 μm pre-filter, then a 0.22 μm filter). • The samples of saliva were mixed 1:1 in a sterile vessel. 7.2 Incubation of the Preparations for Lysis • To the saliva prepared as described above were also added: • approx. 1×10^4 CFU/ml of DSM 18421 (from a suitable dilution of the overnight culture), • approx. 1×10^8 PFU/ml of phages (Simba Top, 1:1 mixture of purified M and K phages). • Used in addition were serralysin (100 U/ml), dornase (25 μml) or benzonase (25 μml) or a combination of these enzymes. • The enzymes were added right at the start of the incubation. • A control incubation was carried out at the same time in which the phages were replaced by adding the same volume of storage buffers (for composition see below). • The total volume of all the preparations was 2 ml. • The incubation was carried out in 10 ml glass penicillin bottles at 37° C. and 200 rpm (in a shaker incubator) 7.3 Determination of the Viable Cell Count (CFU/ml) After 6 h • After an incubation period of 6 h, an aliquot was taken from each preparation and a factor-of-ten dilution series prepared from it. • 2-5 suitable dilutions were selected from each dilution series and 2×100 μl (twin samples) of each were plated (with a Drigalski spatula). • The plating was performed onto LB agar in the case of the phage-free preparations and onto LB agar containing 0.01% citrate in the case of the preparations containing phages. • After at least 16 h of incubation at 37° C., the colony forming units (CFU's) were counted on each plate • Only plates which had at least 20 CFU's were used to calculate the FIGURE for CFU/ml • A representation in graph form was prepared by plotting CFU/ml (in logarithmic form) against the period of incubation.
Period of incubation: 6 hours Medium: saliva (human; mixture)

[8] = Table 10, 6 h, 37° C., phages approx. 1×10^8 PFU/ml, serralysin 100 U/ml

Compound	Percentage of surviving animals ([1]; 0 hours after infection) [%]	Percentage of surviving animals ([1]; 5 hours after infection) [%]	Percentage of surviving animals ([1]; 19 hours after infection) [%]	Percentage of surviving animals ([1]; 23 hours after infection) [%]	Percentage of surviving animals ([1]; 29 hours after infection) [%]	Percentage of surviving animals ([1]; 43 hours after infection) [%]	Percentage of surviving animals ([1]; 47 hours after infection) [%]	Sensitivity of the strain, in words [2]	Mortality in the acute phase, in words ([1]; bacteriophages one-off before the infection, vancomycin prior and thereafter continuous, compared with the placebo)	% relative to control [3] [%]	Difference voltage [3] [μV]	% relative to control [4] [%]	Difference voltage [4] [μV]	% relative to control [5] [%]	Difference voltage [5] [μV]	Sensitivity of the strain, in words [6]	Effect on the colony count of S. aureus in saliva, in words ([7]; 6 h)	Colony count, % of control without phages [7, 8] [%]	Viable cell count [7, 8]
O=C(O)c1cn(C2CC2)c2cc(N3CCNCC3)c(F)cc2c1=O [Ciprofloxacin, ciprofloxacin]	100	100	60	45	35	10	10	resistant	–	–	–	–	–	–	–	–	–	–	–
CN[C@H](CC(C)C)C(=O)N[C@H]1C(=O)N[C@@H](CC(N)=O)C(=O)N[C@H]2C(=O)N[C@H]3C(=O)N[C@H](C(=O)N[C@H](C(=O)O)c4cc(O)cc(O)c4-c4cc3ccc4O)[C@H](O)c3ccc(c(Cl)c3)Oc3cc2cc(c3O[C@@H]2O[C@H](CO)[C@@H](O)[C@H](O)[C@H]2O[C@H]2C[C@](C)(N)[C@H](O)[C@H](C)O2)Oc2ccc(cc2Cl)[C@H]1O [Vancomycin, vancomycin]	–	–	–	–	–	–	–	sensitive	reduction in mortality	36	−3.681	41	−4.132	61	−0.438	sensitive	–	–	–
serralysin	–	–	–	–	–	–	–	–	–	–	–	–	–	–	–	–	did not cause a reduction in the colony count	130	1.14 × 10^6 CFU/ml
